Tests used:
Assay type in all cases: in vivo
[1] = tested on: mice; assay: Sleep induced by sub-threshold dose of pentobarbital sodium in mice; conditions: pentobarbital sodium 25 mg/kg 60 min after last dose, twice daily for three days, Diazepam 20 mg/kg BW, Tomato Extract 3 mg/kg BW (melatonin content), Synthesized Melatonin 5 mg/kg BW; for Number of Mice that Fell Asleep: 10 mice, within 30 minutes
[2] = tested on: mice; assay: Sleep induced by over-threshold dose of pentobarbital sodium in mice; conditions: pentobarbital sodium 40 mg/kg 60 min after last dose, twice daily for three days, Diazepam 20 mg/kg BW, Tomato Extract 3 mg/kg BW (melatonin content), Synthesized Melatonin 5 mg/kg BW; for Number of Mice that Fell Asleep: 10 mice, within 30 minutes
[3] = tested on: mice; assay: Threshold dose experiment of pentobarbital sodium (sleep rate within 30 minutes post-injection); conditions: for Sleep Rate (%) / Number of Mice that Fell Asleep: within 30 minutes; for Number of Mice that Fell Asleep: 10 mice
Procedure: Threshold Dose Experiment of Pentobarbital Sodium: A total of 40 mice were randomly divided into four groups, with 10 mice in each group. Each group received an intraperitoneal injection of pentobarbital sodium at the following doses: 25 mg/kg bodyweight (BW), 30 mg/kg BW, 35 mg/kg BW, and 40 mg/kg BW. The sleep rates of the mice were recorded within 30 minutes post-injection.
Based on the experimental results, it appears that the lower threshold dose of pentobarbital sodium is 25 mg/kg BW (“sub-threshold dose”). Based on the experimental results, it appears that the upper threshold dose of pentobarbital sodium is 40 mg/kg BW (“over-threshold dose”). The lower threshold was used for subsequent studies.

[4] = mice, intraperitoneal, sleep within 30 minutes

SMILES: COc1ccc2[nH]cc(CCNC(C)=O)c2c1 [Chemically Synthesized Melatonin, N-acetyl-5-methoxytruptamine]
- Sleep Latency [1]: 6.33 min
- Sleep Rate (%) [1]: 100%
- Total Sleep Duration [1]: 21.56 min
- Number of Mice that Fell Asleep [1]: 10
- Sleep Latency [2]: 4.53 min
- Sleep Rate (%) [2]: 100%
- Total Sleep Duration [2]: 62.56 min
- Number of Mice that Fell Asleep [2]: 10

SMILES: CN1C(=O)CN=C(c2ccccc2)c2cc(Cl)ccc21 [Diazepam]
- Sleep Latency [1]: 7.89 min
- Sleep Rate (%) [1]: 100%
- Total Sleep Duration [1]: 19.23 min
- Number of Mice that Fell Asleep [1]: 10
- Sleep Latency [2]: 5.13 min
- Sleep Rate (%) [2]: 100%
- Total Sleep Duration [2]: 58.23 min
- Number of Mice that Fell Asleep [2]: 10

SMILES: CCCC(C)C1(CC)C(=O)NC(=O)NC1=O (stereo not shown) [Pentobarbital Sodium, pentobarbital sodium]
- Sleep Latency [1]: 12.37 min
- Sleep Rate (%) [1]: 10%
- Total Sleep Duration [1]: 11.50 min
- Number of Mice that Fell Asleep [1]: 1
- Sleep Latency [2]: 12.69 min
- Sleep Rate (%) [2]: 100%
- Total Sleep Duration [2]: 13.50 min
- Number of Mice that Fell Asleep [2]: 10
- Sleep Rate (%) ([3]; 25 mg/kg BW intraperitoneal): 10%
- Number of Mice that Fell Asleep ([3]; 25 mg/kg BW intraperitoneal): 1
- Sleep Rate (%) ([3]; 30 mg/kg BW intraperitoneal): 50%
- Number of Mice that Fell Asleep ([3]; 30 mg/kg BW intraperitoneal): 5
- Sleep Rate (%) ([3]; 35 mg/kg BW intraperitoneal): 80%
- Number of Mice that Fell Asleep ([3]; 35 mg/kg BW intraperitoneal): 8
- Sleep Rate (%) ([3]; 40 mg/kg BW intraperitoneal): 100%
- Number of Mice that Fell Asleep ([3]; 40 mg/kg BW intraperitoneal): 10
- lower threshold dose (sub-threshold dose) [3, 4]: 25 mg/kg BW
- upper threshold dose (over-threshold dose) [3, 4]: 40 mg/kg BW
